Reference: patent US20180319810A1, “SUBSTITUTED BRIDGED UREA ANALOGS AS SIRTUIN MODULATORS” (GlaxoSmithKline Intellectual Property (No.2) Limited, priority 2014, published 2018)

Biological target: T1, SIRT1 (Homo sapiens, UniProt Q96EB6)
T1 sequence (Q96EB6 1-747): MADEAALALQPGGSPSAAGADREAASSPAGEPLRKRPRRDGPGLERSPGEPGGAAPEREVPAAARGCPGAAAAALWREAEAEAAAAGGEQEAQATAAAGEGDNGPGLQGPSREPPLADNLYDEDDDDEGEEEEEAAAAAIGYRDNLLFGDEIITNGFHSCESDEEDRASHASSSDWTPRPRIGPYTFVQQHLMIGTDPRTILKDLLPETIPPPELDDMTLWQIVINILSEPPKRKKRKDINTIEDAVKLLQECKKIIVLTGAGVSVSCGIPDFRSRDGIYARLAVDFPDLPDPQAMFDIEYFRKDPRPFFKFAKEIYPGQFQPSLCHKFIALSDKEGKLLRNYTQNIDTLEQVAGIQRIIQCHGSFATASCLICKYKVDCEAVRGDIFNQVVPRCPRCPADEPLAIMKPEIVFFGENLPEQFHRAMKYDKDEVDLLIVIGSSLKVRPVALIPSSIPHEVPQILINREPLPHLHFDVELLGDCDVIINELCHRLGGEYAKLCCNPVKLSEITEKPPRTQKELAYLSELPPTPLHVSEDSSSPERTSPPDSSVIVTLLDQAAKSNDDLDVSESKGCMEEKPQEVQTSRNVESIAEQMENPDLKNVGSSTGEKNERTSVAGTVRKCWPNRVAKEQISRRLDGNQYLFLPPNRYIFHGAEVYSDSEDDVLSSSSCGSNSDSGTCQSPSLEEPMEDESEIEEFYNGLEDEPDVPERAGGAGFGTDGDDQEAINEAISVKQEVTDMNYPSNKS
Test: Trp mass spectrometry assay of SIRT1 activation
Assay type: biochemical
Conditions: Trp peptide Ac-R-H-K-K(Ac)-W-NH2 0.5 μM, 120 μM βNAD+, 10 nM SIRT1, 25 min, 25° C.
Excerpt: Mass spectrometry based assays were used to identify modulators of SIRT1 activity. […] The peptide was labeled with the fluorophore 5TMR (excitation 540 nm/emission 580 nm) at the C-terminus. The sequence of the peptide substrate was based on p53 with several modifications. In addition, the methionine residue naturally present in the sequence was replaced with the norleucine because the methionine may be susceptible to oxidation during synthesis and purification.
The Trp mass spectrometry assay was conducted as follows. […] The SIRT1 protein was obtained by cloning the SirT1 gene into a T7-promoter containing vector, which was then expressed in BL21(DE3) bacterial cells and purified as described in further detail below. Test compound was added at varying concentrations to this reaction mixture and the resulting reactions were monitored. After the 25 minute incubation with SIRT1, 10 μL of 10% formic acid was added to stop the reaction. The resulting reactions were sealed and frozen for later mass spec analysis. The relative SIRT1 activity was then determined by measuring the amount of O-acetyl-ADP-ribose (OAADPR) formed (or, alternatively, the amount of deacetylated Trp peptide generated) by the NAD-dependent sirtuin deacetylation reaction in the presence of varying concentrations of the test compound versus control reactions lacking the test compound.
The degree to which the test agent activated deacetylation by SIRT1 was expressed as EC1.5 (i.e., the concentration of compound required to increase SIRT1 activity by 50% over the control lacking test compound), and Percent Maximum Activation (i.e., the maximum activity relative to control (100%) obtained for the test compound).
This time point was the same as that used for test compounds and, within the linear range, the endpoint represents a change in velocity.
For the above assay, SIRT1 protein was expressed and purified as follows. The SirT1 gene was cloned into a T7-promoter containing vector and transformed into BL21(DE3). The protein was expressed by induction with 1 mM IPTG as an N-terminal His-tag fusion protein at 18° C. overnight and harvested at 30,000×g. Cells were lysed with lysozyme in lysis buffer (50 mM Tris-HCl, 2 mM Tris[2-carboxyethyl]phosphine (TCEP), 10 μM ZnCl2, 200 mM NaCl) and further treated with sonication for 10 min for complete lysis. The protein was purified over a Ni-NTA column (Amersham) and fractions containing pure protein were pooled, concentrated and run over a sizing column (Sephadex S200 26/60 global). The peak containing soluble protein was collected and run on an Ion-exchange column (MonoQ). Gradient elution (200 mM-500 mM NaCl) yielded pure protein. This protein was concentrated and dialyzed against dialysis buffer (20 mM Tris-HCl, 2 mM TCEP) overnight. The protein was aliquoted and frozen at −80° C. until further use.
“NT” means not tested; “ND” means not determinable.

Row | TRP Activity (EC1.5, concentration of compound required to increase SIRT1 activity by 50% over control) | TRP MAX RESP (percent maximum fold activation relative to control) | Compound
1 | A (EC1.5<1 μM) | A (Fold activation ≥150%) | O=C(Nc1cccc(OC[C@@H](O)CO)n1)N1c2nc(-c3cccc(C(F)(F)F)c3)ncc2N2CC[C@H]1C2 [Example 31, (8S)—N-(6-((S)-2,3-dihydroxypropoxy)pyridin-2-yl)-2-(3-(trifluoromethyl)phenyl)-7,8-dihydro-5,8-methanopyrimido[4,5-b][1,4]diazepine-9(6H)-carboxamide]
2 | A (EC1.5<1 μM) | A (Fold activation ≥150%) | O=C(Nc1ccnc(OC[C@@H](O)CO)c1)N1c2nc(-c3cccc(C(F)(F)F)c3)ncc2N2CC[C@H]1C2 [Example 32, (8S)—N-(2-((S)-2,3-dihydroxypropoxy)pyridin-4-yl)-2-(3-(trifluoromethyl)phenyl)-7,8-dihydro-5,8-methanopyrimido[4,5-b][1,4]diazepine-9(6H)-carboxamide]
3 | B (EC1.5 1-25 μM) | A (Fold activation ≥150%) | O=C(Nc1cc(OC[C@H](O)CO)ccn1)N1c2nc(-c3cccc(C(F)(F)F)c3)ncc2N2CC[C@H]1C2 [Example 33, (8S)—N-(4-((R)-2,3-dihydroxypropoxy)pyridin-2-yl)-2-(3-(trifluoromethyl)phenyl)-7,8-dihydro-5,8-methanopyrimido[4,5-b][1,4]diazepine-9(6H)-carboxamide]
4 | A (EC1.5<1 μM) | A (Fold activation ≥150%) | Cl.O=C(Nc1ccnc(OC[C@H](O)CO)c1)N1c2nc(-c3cccc(C(F)(F)F)c3)ncc2N2CC[C@H]1C2 [Example 34, (8S)—N-(2-((R)-2,3-dihydroxypropoxy)pyridin-4-yl)-2-(3-(trifluoromethyl)phenyl)-7,8-dihydro-5,8-methanopyrimido[4,5-b][1,4]diazepine-9(6H)-carboxamide hydrochloride]
5 | B (EC1.5 1-25 μM) | A (Fold activation ≥150%) | O=C(Nc1cncc(OC[C@H](O)CO)c1)N1c2nc(-c3cccc(C(F)(F)F)c3)ncc2N2CC[C@H]1C2 [Example 35, (8S)—N-(5-((R)-2,3-dihydroxypropoxy)pyridin-3-yl)-2-(3-(trifluoromethyl)phenyl)-7,8-dihydro-5,8-methanopyrimido[4,5-b][1,4]diazepine-9(6H)-carboxamide]
6 | B (EC1.5 1-25 μM) | A (Fold activation ≥150%) | O=C(Nc1cc(OC[C@@H](O)CO)ccn1)N1c2nc(-c3cccc(C(F)(F)F)c3)ncc2N2CC[C@H]1C2 [Example 36, (8S)—N-(4-((S)-2,3-dihydroxypropoxy)pyridin-2-yl)-2-(3-(trifluoromethyl)phenyl)-7,8-dihydro-5,8-methanopyrimido[4,5-b][1,4]diazepine-9(6H)-carboxamide]
7 | B (EC1.5 1-25 μM) | A (Fold activation ≥150%) | O=C(Nc1cncc(OC[C@H](O)CO)n1)N1c2nc(-c3cccc(C(F)(F)F)c3)ncc2N2CC[C@H]1C2 [Example 37, (8S)—N-(6-((R)-2,3-dihydroxypropoxy)pyrazin-2-yl)-2-(3-(trifluoromethyl)phenyl)-7,8-dihydro-5,8-methanopyrimido[4,5-b][1,4]diazepine-9(6H)-carboxamide]
8 | A (EC1.5<1 μM) | A (Fold activation ≥150%) | O=C(Nc1ccc(OC[C@@H](O)CO)nc1)N1c2nc(-c3cccc(C(F)(F)F)c3)ncc2N2CC[C@H]1C2 [Example 38, (8S)—N-(6-((S)-2,3-dihydroxypropoxy)pyridin-3-yl)-2-(3-(trifluoromethyl)phenyl)-7,8-dihydro-5,8-methanopyrimido[4,5-b][1,4]diazepine-9(6H)-carboxamide]
